Results on five compounds are retold here after patent US5643927A, “4-p-fluorobenzoyl-1-piperidinyl-propoxy-chromen-4-one derivatives, their preparation and their use in the treatment of psychosis and schizophrenia” (Ferrer Internacional, S.A., priority 1994, dated 1997).

Structures are written as SMILES. Counter-ions that a name gives are not always drawn. Like-named read-outs stand apart in the source and are kept apart here.

Data set [1] concerns the target T1, 5HT2 receptors (Rattus norvegicus, UniProt P14842).
T1 construct: membrane corresponding to 1 mg of rat cortex; from tissue; host or cells: rat cortex membranes
The data set is described as follows: 5HT2 receptor binding ([3H]ketanserin displacement). As to conditions: for IC50: [3H]ketanserin 0.5 nM, rat cortex membrane, 30 min, 35° C., pH 7.4; for specificity over 5HT2 receptors versus D2 receptors (in words): D2 /5HT2 ratio. The procedure:
(§1) Specific binding to σ, D2, D3, 5H2 and 5HT1a receptors has been tested as follows:
5HT2 receptors: A 0.5 nM solution of radioactive ketanserin ([^3 H]ketanserin), which acts as a specific ligand, was incubated with the membrane corresponding to 1 mg of rat cortex for 30 min at 35° C. buffered at pH 7.4 with Tris.HCl. […] After the incubation was completed, the sample was filtered through a glass fiber filter and then washed three times with Tris.HCl buffer. The amount of receptor-bound radioactivity was retained on the membrane and determined by liquid scintillation counting.
(§2) Values are expressed as IC50 in molar concentrations.

In data set [2] the target is D2 receptors (Rattus norvegicus, UniProt P61169). As to the kind of experiment: biochemical. The data set is classed as binding. As for the experimental part: as §1
D2 receptors: A 2-nM solution of radioactive spiperone ([^3 H]spiperone), which acts as a specific ligand, was incubated with the membrane corresponding to 20 mg of rat striatum for 20 min at 35° C. buffered at pH 7.4 with Tris.HCl. The non-specific binding was then determined by addition of a micromolar concentration of unlabelled spiperone. […] After the incubation was completed, the sample was filtered through a glass fiber filter and then washed three times with Tris.HCl buffer. The amount of receptor-bound radioactivity was retained on the membrane and determined by liquid scintillation counting.
as §2

The target of data set [3] is σ receptors (Cavia porcellus, UniProt Q60492). As to the kind of experiment: biochemical. The data set is classed as binding. The procedure: as §1
σ receptors: A 2-nM solution of radioactive 3-PPP ((+) [^3 H]3-[3-hydroxyphenyl]-N-(1-propyl)-piperidine), which acts as a specific ligand, was incubated with the membrane corresponding to 40 mg of guinea-pig total brain for 90 min at 25° C. buffered at pH 8.5 with Tris.HCl. Thus, total binding of ligand to membranes was attained. Non-specific binding was then determined by adding a micromolar concentration of unlabelled 3-PPP. […] After the incubation was completed, the samples were filtered through a glass fiber filter and then washed three times with Tris.HCl buffer. The amount of receptor-bound radioactivity was retained on the membrane and determined by liquid scintillation counting.
as §2

The target in data set [4] is T2, 5HT1a receptors (Rattus norvegicus, UniProt P19327).
T2 sequence (P19327 1-422): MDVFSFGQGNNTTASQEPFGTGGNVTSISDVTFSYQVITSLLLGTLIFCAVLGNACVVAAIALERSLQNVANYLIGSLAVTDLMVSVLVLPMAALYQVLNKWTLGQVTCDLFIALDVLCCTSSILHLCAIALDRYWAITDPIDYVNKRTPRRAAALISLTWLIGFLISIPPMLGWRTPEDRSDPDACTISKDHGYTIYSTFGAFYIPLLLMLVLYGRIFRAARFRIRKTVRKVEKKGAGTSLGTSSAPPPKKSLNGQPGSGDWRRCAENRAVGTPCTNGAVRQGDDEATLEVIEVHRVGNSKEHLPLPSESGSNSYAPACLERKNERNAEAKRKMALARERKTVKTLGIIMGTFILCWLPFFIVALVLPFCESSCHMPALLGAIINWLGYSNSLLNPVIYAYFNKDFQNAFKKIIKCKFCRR
As to the kind of experiment: biochemical. The data set is classed as binding. The procedure:
as §1
5HT1a receptors: A 1 nM solution of radioactive […], which acts as a specific ligand, was incubated with the membrane corresponding to 1 mg of rat cortex for 20 min at 35° C. buffered at pH 7.4 with Tris.HCl. Non-specific binding was then determined by addition of a 20 micromolar concentration of unlabelled buspirone. […] After the incubation was completed, the sample was filtered through a glass fiber filter and then washed three times with Tris.HCl buffer. The amount of receptor-bound radioactivity was retained on the membrane and determined by liquid scintillation counting.
as §2

In data set [5] the target is T3, D3 receptors (Homo sapiens, UniProt P35462).
T3 construct: purchased RBI; host or cells: mouse fibroblasts (CCL 1,3)
As to the kind of experiment: biochemical. The data set is classed as binding. The procedure:
as §1
D3 receptors: A 0.1 nM solution of radioactive YM-0951 ([^3 H]YM-0951), which acts as a specific ligand, was incubated with the membrane provided by RBI obtained from mouse fibroblasts (CCL 1,3) for 15 min at 37° C., buffered at pH 7.4 with Tris.HCl. […] After the incubation was completed, the sample was filtered through a glass fiber filter and then washed three times with Tris.HCl buffer. The amount of receptor-bound radioactivity was retained on the membrane and determined by liquid scintillation counting.
as §2

Data set [6] can be described thus: catalepsy in rats after oral administration (extrapyramidal effects). The data set is classed as in vivo. The following applies: rat, in vivo, po.
Data set [7] has as its system catalepsy. The data set is described as above. The data set is classed as in vivo. As to conditions: rats, oral.
Data set [8] is described as follows: animal pharmacological tests (overall statement). As to conditions: in vivo.
In data set [9] the test system is apomorphine-induced climbing behaviour. The data set is described as follows: Test (C): Inhibition of apomorphine-induced climbing behaviour. The data set is classed as in vivo, Male Swiss mice. As to conditions: Mus musculus, 1 h; oral, mice; apomorphine 1 mg/kg s.c. after 60 min; climbing assessed after further 60 min. The procedure: One week prior to experiment, animals were kept in our facilities at a temperature of 20°-22° C. and 12/12 h light-dark cycle, and had free access to food and water. Two hours prior to experiment, the animals were placed in individual cages without access to food.
Two additional assessments were performed at 10-min intervals.
The walls of the box were made of translucent methacrylate except one of the lateral surfaces (7.5 cm wide) which was a 3-mm wire mesh. […] If an animal keeps several positions within the 2-min observation, the seconds elapsed in each position will be recorded. Finally, mean scoring was calculated.

Setting [10] is: [3H]spiperone 2 nM, rat striatum membrane, 20 min, 35° C., pH 7.4, read-out: IC50 (M) D2.
Setting [11] is: [3H]3-PPP 2 nM, guinea-pig total brain membrane, 90 min, 25° C., pH 8.5, read-out: IC50 (M) σ.
[12] abbreviates: [3H]5-OH-DPAT 1 nM, rat cortex membrane, 20 min, 35° C., pH 7.4, read-out: IC50 (M) 5HT1A.
Where [13] appears, read: [3H]YM-0951 0.1 nM, membrane from mouse fibroblasts (CCL 1,3), 15 min, 37° C., pH 7.4, read-out: IC50 (M) D3.

T1 sequence (P14842 whole entry): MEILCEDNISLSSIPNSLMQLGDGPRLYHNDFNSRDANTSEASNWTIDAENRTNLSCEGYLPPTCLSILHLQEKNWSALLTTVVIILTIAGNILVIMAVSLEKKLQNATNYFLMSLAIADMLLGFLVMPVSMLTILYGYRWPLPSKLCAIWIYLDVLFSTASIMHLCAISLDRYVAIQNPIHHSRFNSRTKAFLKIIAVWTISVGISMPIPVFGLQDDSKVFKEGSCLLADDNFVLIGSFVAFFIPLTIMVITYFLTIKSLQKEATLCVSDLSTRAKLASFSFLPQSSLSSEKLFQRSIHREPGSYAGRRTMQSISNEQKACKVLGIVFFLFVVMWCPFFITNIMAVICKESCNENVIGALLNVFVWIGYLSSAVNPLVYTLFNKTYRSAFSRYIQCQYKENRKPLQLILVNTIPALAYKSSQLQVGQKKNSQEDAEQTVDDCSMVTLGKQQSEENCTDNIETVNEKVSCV
Sequence of σ receptors (Q60492 whole entry): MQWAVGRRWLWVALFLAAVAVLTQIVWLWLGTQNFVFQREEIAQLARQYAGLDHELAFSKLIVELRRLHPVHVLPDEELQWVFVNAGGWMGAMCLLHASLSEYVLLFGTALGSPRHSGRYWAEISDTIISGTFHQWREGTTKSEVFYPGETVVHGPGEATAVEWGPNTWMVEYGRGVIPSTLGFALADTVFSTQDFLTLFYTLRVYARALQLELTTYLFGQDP
Sequence of D2 receptors (P61169 whole entry): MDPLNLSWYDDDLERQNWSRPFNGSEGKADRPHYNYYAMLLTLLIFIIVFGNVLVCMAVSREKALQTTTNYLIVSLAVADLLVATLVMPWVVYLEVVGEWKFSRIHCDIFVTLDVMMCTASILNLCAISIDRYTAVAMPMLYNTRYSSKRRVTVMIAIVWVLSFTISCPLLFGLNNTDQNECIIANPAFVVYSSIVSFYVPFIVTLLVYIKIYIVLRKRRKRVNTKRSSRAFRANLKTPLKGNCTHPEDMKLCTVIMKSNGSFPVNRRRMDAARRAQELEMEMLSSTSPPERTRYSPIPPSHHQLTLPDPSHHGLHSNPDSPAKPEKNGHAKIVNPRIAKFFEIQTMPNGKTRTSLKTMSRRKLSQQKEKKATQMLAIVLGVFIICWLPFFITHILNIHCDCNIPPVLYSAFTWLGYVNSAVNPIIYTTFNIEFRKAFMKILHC
T3 sequence (P35462 whole entry): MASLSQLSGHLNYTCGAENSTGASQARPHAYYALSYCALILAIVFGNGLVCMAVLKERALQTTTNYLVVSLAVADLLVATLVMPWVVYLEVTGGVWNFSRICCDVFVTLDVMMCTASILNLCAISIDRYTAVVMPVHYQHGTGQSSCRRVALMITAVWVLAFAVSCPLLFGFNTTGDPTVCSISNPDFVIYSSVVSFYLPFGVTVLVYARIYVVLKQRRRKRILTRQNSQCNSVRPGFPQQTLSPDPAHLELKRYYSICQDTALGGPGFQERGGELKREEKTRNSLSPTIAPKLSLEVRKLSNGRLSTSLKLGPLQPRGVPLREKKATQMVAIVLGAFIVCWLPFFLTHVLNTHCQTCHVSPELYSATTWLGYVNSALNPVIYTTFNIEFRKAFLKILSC

Consider `OC(CCCN1CCN(c2ncc(F)cn2)CC1)c1ccc(F)cc1` (centres unmarked) [BMY-14802, reference compound], for which the IC50 in data set [1] was found to be 1150 nM; in data set [2] (setting [10]), 1.59e-05 M.

With `Cl.O=C(c1ccc(F)cc1)C1CCN(CCCOc2ccc3c(=O)ccoc3c2)CC1` [Example 1, 7-[3-(4-p-fluorobenzoyl-1-piperidinyl)propoxy]chromen-4-one hydrochloride], the IC50 amounted to 1.46e-08 M in data set [3] (setting [11]); 1.56e-06 M in data set [4] (setting [12]); 6.88e-08 M in [5] (setting [13]); 17.1 nM in data set [1]; 4.36e-07 M in data set [2] (setting [10]). The “activity on D3 receptors (in words)” value in data set [5] (compared with 7-OH-DPAT) was “active on D3 receptors in the same order as 7-OH-DPAT”. Moreover, the “specificity over 5HT2 receptors versus D2 receptors (in words)” value in data set [1] (hydrochloride) is “the most specific over 5HT2 receptors versus D2 receptors”; in data set [1] (listed as Ex. 1, hydrochloride), “surpasses BMY-14802 and risperidone in D2 /5HT2 ratio”.

As for `Cc1cc(=O)c2ccc(OCCCN3CCC(C(=O)c4ccc(F)cc4)CC3)cc2o1` [Example 2, 7-[3-(4-p-fluorobenzoyl-1-piperidinyl)propoxy]-2-methyl-chromen-4-one hydrochloride], the 50% inhibitory concentration (IC50) in data set [3] (setting [11]) was 7.99e-07 M; in data set [4] (setting [12]) it was 1.57e-06 M; in data set [5] (setting [13]), 8.55e-07 M; in data set [1] it was 56.6 nM; in data set [2] (setting [10]), 3.74e-07 M.

Consider `Cc1coc2cc(OCCCN3CCC(C(=O)c4ccc(F)cc4)CC3)ccc2c1=O` [Example 3, 7-[3-(4-p-fluorobenzoyl-1-piperidinyl)propoxy]-3-methyl-chromen-4-one hydrochloride], for which the IC50 was 2.43e-07 M in data set [3]; 7.64e-07 M in data set [4]; 1.94e-07 M in [5]; 82 nM in data set [1]; 1.29e-07 M in data set [2].

For the compound `Cl.O=C(c1ccc(F)cc1)C1CCN(CCCOc2ccc3c(=O)c(CO)coc3c2)CC1` [Example 4, 3-Hydroxymethyl-7-[3-(4-p-fluorobenzoyl-1-piperidinyl)propoxy]-chromen-4-one hydrochloride], the IC50 in data set [1] was found to be 47.4 nM. Besides, the “D2 /5HT2” value in data set [1] (ratio of IC50 D2 to IC50 5HT2) was 4.01. This compound also gave a TD50 in data set [6] of 15 mg/kg. Besides, the “extrapyramidal effects (in words)” value in data set [7] is recorded as “did not show very important extrapyramidal effects”. The “activity in animal pharmacological tests (in words)” value in data set [8] was “very active in animal pharmacological tests”. In addition, in [9], the ED50 turned out to be 3.2 mg/kg.

Broadly, the IC50 is the point on the concentration scale where inhibition reaches its midpoint. What is called ED50 is the dose that gives a 50% effect, or the effect in half of the subjects.
